# From patent publication US20120277264A1, “ANTITHROMBOTIC AGENT” (Taiho Pharmaceutical Co., Ltd., priority 2009, published 2012)
# Assays:
# [1] = tested on: thrombus formation in the arteria testicularis; assay: Thrombus formation inhibitory action (FeCl3-induced thrombus, Test Example 1); format: in vivo; settings: male ICR mice; for large thrombus formation time: control about 14 minutes
# Method: Male ICR mice (ten weeks old) were used. Rhodamine 6G (platelet fluorescence-labeling agent) was administered to the tail vein under anesthesia. With the abdomen open, the arteria testicularis was subjected to FeCl3 treatment to induce thrombus formation. Thrombus formation was observed by a real time color three-dimensional observation device, and the thrombus formation time was measured. Suplatast tosilate (IPD), the compound of the present invention, was dissolved in water and orally administered in a single dose (100 mg/kg) 30 minutes before the FeCl3 treatment or for 7 consecutive days (100 mg/kg, 30 mg/kg, 10 mg/kg) before the FeCl3 treatment. In addition, as a control drug, tirofiban (0.3 μmol/kg) was intravenously administered.
# [2] = tested on: thrombus formation in the arteria testicularis; assay: Thrombus formation inhibition, combined use with cilostazol (FeCl3-induced thrombus, Test Example 3); format: in vivo; settings: male ICR mice, control 12±3 minutes, P<0.05 vs. cont.
# Method: Male ICR mice (ten weeks old) were used. Rhodamine 6G (platelet fluorescence-labeling agent) was administered to the tail vein under anesthesia. With the abdomen open, the arteria testicularis was subjected to FeCl3 treatment to induce thrombus formation. Thrombus formation was observed by a real time color three-dimensional observation device, and thrombus formation time was measured. Suplatast tosilate (IPD) (10 mg/kg) was dissolved in water and orally administered for 7 days before amputating the tail to the group that was given IPD alone. Cilostazol (10 mg/kg, 30 mg/kg, 100 mg/kg), a platelet aggregation inhibitor, was dissolved in water and orally administered in a single dose one hour before amputating the tail to the group that was given cilostazol alone. To the combination group of IPD and cilostazol, IPD (10 mg/kg) was orally administered for 7 days, and cilostazol (10 mg/kg) was orally administered in a single dose one hour before amputating the tail on the 7th day of the IPD administration.
# [3] = Amount of bleeding after tail amputation (side effect, Test Example 2); format: in vivo, mice
# Method: Male ICR mice (ten weeks old) were used. The last 2 mm of the tail was amputated with a scalpel under pentobarbital anesthesia, and the tail 2 cm from the tip was immediately immersed in 10 mL of physiological saline at 37° C. Twenty minutes later, the tail was removed from the physiological saline, and 1 mL of Triton X-100 (25% in water) was added. The absorbance at 546 nm was measured, and the amount of bleeding was determined from a calibration curve. Suplatast tosilate (IPD, 100 mg/kg), the compound of the present invention, and a control drug, warfarin (10 mg/kg) were dissolved in distilled water and orally administered in a single dose one hour before amputating the tail, or orally administered for 7 consecutive days before amputating the tail. Distilled water was administered to the control.
compound,measurement,setting,value
"CCOCC(O)COc1ccc(NC(=O)CC[S+](C)C)cc1.Cc1ccc(S(=O)(=O)[O-])cc1 (racemic) [IPD, (±)-[2-[4-(3-ethoxy-2-hydroxypropoxy)phenylcarbamoyl]ethyl]dimethylsulfonium p-toluenesulfonate]",large thrombus formation time,"[1]; 100 mg/kg orally, single dose 30 minutes before FeCl3 treatment",45 min
same,large thrombus formation inhibitory action,"[1]; oral administration for 7 consecutive days (100, 30, 10 mg/kg) vs single dose",clearly enhanced
same,thrombus formation time,[2]; IPD alone 10 mg/kg orally for 7 days,36 ± 11 min
same,amount of bleeding,"[3]; mouse, in vivo, po, 100 mg/kg",did not have a significant effect on the amount of bleeding
O=C1CCc2cc(OCCCCc3nnnn3C3CCCCC3)ccc2N1 [cilostazol],thrombus formation time,"[2]; cilostazol alone, oral single dose (10, 30, 100 mg/kg tested; dose of this value not stated)",25 ± 5 min
CCCCS(=O)(=O)N[C@@H](Cc1ccc(OCCCCC2CCNCC2)cc1)C(=O)O [tirofiban],large thrombus formation time,"[1]; 0.3 μmol/kg intravenously, after FeCl3 stimulation",60 min
CC(=O)CC(c1ccccc1)c1c(O)c2ccccc2oc1=O (centres unmarked) [warfarin],amount of bleeding,"[3]; male ICR mice, 10 mg/kg orally for 7 consecutive days before amputating the tail",notable effect of increasing the amount of bleeding
same,amount of bleeding,"[3]; male ICR mice, 10 mg/kg orally, single dose one hour before amputating the tail",notable effect of increasing the amount of bleeding
